Broadly, the Papp is a coefficient for how fast a substance crosses the barrier. A high value points to fast passage. A word on the IC50: it is the point on the concentration scale where inhibition reaches its midpoint.

Like-named read-outs stand apart in the source and are kept apart here.

Here are results for eleven compounds from PMC6017698 (Molecules : A Journal of Synthetic Chemistry and Natural …, 2018).

Series [1] can be described thus: in vitro. The settings on record: PAMPA. A general note: In PAMPA a lipid-coated filter parts donor from acceptor wells.
Procedure: (§1) The brain permeability (Pe) of the target compounds was determined in vitro using the parallel artificial membrane permeation assay for blood-brain barrier penetration described by Di et al. [41], employing a lipid extract of porcine brain membrane in a mixture of PBS/EtOH 70:30.
The conditions of series [2]: for PAMPA-BBB prediction of BBB permeation: class from Pe value.
Procedure: as §1
Series [3] addresses human serum BChE (Homo sapiens, UniProt P06276). The series is described as follows: biochemical.
Series [4] deals with T1, human recombinant AChE (Homo sapiens, UniProt P22303).
T1 construct: purchased Sigma, Milan, Italy
The series is described as follows: biochemical. It is filed as biochemical. To be noted: for IC50: human recombinant AChE; for selectivity for hAChE over hBChE inhibition: ratio of hBChE and hAChE IC50; for fold more potent hAChE inhibitor than pyridostigmine: relative to pyridostigmine.

For series [5] the following is noted: commercial drugs used for assay validation; cited from earlier work.
Setting [6] is: mean ± SEM of at least three experiments, each in duplicate, read-out: hBChE IC50.
Setting [7] is: mean ± SEM of at least three experiments, each in duplicate, read-out: hAChE IC50.

T1 sequence (P22303 32-614): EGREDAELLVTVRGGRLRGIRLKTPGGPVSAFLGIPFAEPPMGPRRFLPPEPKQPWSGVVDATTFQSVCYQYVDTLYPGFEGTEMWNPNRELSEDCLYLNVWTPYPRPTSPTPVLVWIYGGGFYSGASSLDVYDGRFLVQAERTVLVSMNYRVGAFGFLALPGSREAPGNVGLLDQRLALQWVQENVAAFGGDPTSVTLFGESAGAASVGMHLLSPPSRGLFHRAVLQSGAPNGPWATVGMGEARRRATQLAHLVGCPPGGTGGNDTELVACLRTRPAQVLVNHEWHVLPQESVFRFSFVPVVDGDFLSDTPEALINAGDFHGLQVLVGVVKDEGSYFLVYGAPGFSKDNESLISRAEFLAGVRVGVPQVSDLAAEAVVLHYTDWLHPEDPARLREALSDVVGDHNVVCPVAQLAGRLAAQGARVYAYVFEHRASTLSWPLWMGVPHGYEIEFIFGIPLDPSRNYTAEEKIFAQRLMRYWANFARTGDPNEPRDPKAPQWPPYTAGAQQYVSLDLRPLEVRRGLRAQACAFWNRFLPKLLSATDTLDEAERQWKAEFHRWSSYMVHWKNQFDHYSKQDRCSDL
human serum BChE, sequence (P06276 29-602): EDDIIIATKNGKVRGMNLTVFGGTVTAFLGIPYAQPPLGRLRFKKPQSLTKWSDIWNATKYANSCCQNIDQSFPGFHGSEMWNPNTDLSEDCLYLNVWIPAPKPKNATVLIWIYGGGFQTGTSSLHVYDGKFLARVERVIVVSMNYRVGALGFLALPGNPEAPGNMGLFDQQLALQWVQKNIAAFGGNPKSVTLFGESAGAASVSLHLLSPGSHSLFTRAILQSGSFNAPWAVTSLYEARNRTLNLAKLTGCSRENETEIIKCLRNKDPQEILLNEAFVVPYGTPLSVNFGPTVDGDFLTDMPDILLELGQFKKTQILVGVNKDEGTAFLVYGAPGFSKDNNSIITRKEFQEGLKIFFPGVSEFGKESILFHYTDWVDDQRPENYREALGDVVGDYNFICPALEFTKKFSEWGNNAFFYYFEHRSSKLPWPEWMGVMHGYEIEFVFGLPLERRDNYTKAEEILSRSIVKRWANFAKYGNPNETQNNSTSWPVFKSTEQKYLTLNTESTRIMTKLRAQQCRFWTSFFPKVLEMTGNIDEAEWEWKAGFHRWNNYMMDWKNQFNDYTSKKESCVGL

In the case of `Nc1c2c(nc3cc(Cl)ccc13)CCCC2` [6-chlorotacrine, reference compound], in series [1] (pig), the Papp is 19.8 ± 0.4 ×10⁻⁶ cm/s. Moreover, the “PAMPA-BBB prediction of BBB permeation” value in series [2] was “CNS+ (High BBB permeation (CNS+) is expected for compounds with Pe > 5.19)”.

As for `C[n+]1c2c(c(N)c3ccccc31)CCCC2.[I-]` [Compound 4, 9-Amino-1,2,3,4-tetrahydro-10-methylacridin-10-ium iodide], the IC50 in series [3] (setting [6]) turned out to be 2850 ± 190 nM; in series [4] (setting [7]), 12000 ± 1000 nM. The compound also showed a Papp in series [1] of 1.7 ± 1.5 ×10⁻⁶ cm/s. In addition, in series [2], the “PAMPA-BBB prediction of BBB permeation” value is recorded as “CNS− (low BBB permeation (CNS−) is expected for compounds with Pe < 2.07)”.

With `C[n+]1c2c(c(N)c3ccc(Cl)cc31)CCCC2.[I-]` [Compound 5, 9-Amino-6-chloro-1,2,3,4-tetrahydro-10-methylacridin-10-ium iodide], the IC50 in series [3] (setting [6]) was 22300 ± 1500 nM; in series [4] (setting [7]), 2450 ± 280 nM. In series [1], this compound had a Papp of 1.2 ± 0.8 ×10⁻⁶ cm/s. Moreover, in series [2], the “PAMPA-BBB prediction of BBB permeation” value was “CNS− (low BBB permeation (CNS−) is expected for compounds with Pe < 2.07)”.

Compound `CC1=CC2Cc3c(c(N)c4ccc(Cl)cc4[n+]3C)C(C1)C2.[I-]` (centres unmarked) [Compound 6, 12-Amino-3-chloro-6,7,10,11-tetrahydro-5,9-dimethyl-7,11-methanocycloocta[b]quinolin-5-ium iodide] had a Papp in series [1] of 10.9 ± 1.5 ×10⁻⁶ cm/s. In series [2] (PBS/EtOH 70:30, mean of three independent experiments ± SD), the “PAMPA-BBB Pe” value is reported as 10.90 10^−6 cm/s. In series [2], the “PAMPA-BBB prediction of BBB permeation” value was “CNS+ (High BBB permeation (CNS+) is expected for compounds with Pe > 5.19)”.

Turning to `OCCc1cn(CCNc2c3c(nc4ccccc24)CCCC3)nn1` [Compound 9, 2-{1-[2-(1,2,3,4-Tetrahydroacridin-9-ylamino)ethyl]-1H-1,2,3-triazol-4-yl}ethanol], the IC50 was determined as 170 ± 10 nM in series [3] (setting [6]) and 1730 ± 120 nM in series [4] (setting [7]). Further, in series [1] (pig), the Papp was 0.03 ± 0.001 ×10⁻⁶ cm/s. Besides, in series [2], the “PAMPA-BBB prediction of BBB permeation” value was “CNS− (low BBB permeation (CNS−) is expected for compounds with Pe < 2.07)”.

As to `OCCc1cn(CCNc2c3c(nc4cc(Cl)ccc24)CCCC3)nn1` [Compound 10, 2-{1-[2-(6-Chloro-1,2,3,4-tetrahydroacridin-9-ylamino)ethyl]-1H-1,2,3-triazol-4-yl}ethanol], in series [3] (setting [6]), the IC50 amounted to 3250 ± 170 nM. This compound also had a Papp in series [1] (pig) of 0.02 ± 0.001 ×10⁻⁶ cm/s. Besides, in series [4] (setting [7]), the IC50 is 200 ± 10 nM. Also, in series [4], the “selectivity for hAChE over hBChE inhibition” value amounted to 16 and the “fold more potent hAChE inhibitor than pyridostigmine” value came to 7 fold. Further, the “PAMPA-BBB prediction of BBB permeation” value in series [2] is “CNS− (low BBB permeation (CNS−) is expected for compounds with Pe < 2.07)”.

Take `COc1cc(CNC(=O)Cc2cn(CCNc3c4c(nc5ccccc35)CCCC4)nn2)ccc1O` [Compound 15, N-[4-(hydroxy)-3-methoxybenzyl]-2-{1-[2-(1,2,3,4-tetrahydroacridin-9-ylamino)ethyl]-1H-1,2,3-triazol-4-yl}acetamide]: the IC50 was 50 nM in series [3] (setting [6]); 54.8 nM in series [3] (values given in nM (table footnotes), read-out: IC50 hBChE); 250 ± 10 nM in series [4] (setting [7]). Further, the Papp in series [1] (pig) came out at 0.03 ± 0.001 ×10⁻⁶ cm/s. The “PAMPA-BBB prediction of BBB permeation” value in series [2] is “CNS− (low BBB permeation (CNS−) is expected for compounds with Pe < 2.07)”.

For `COc1cc(CNC(=O)Cc2cn(CCNc3c4c(nc5cc(Cl)ccc35)CCCC4)nn2)ccc1O` [Compound 16, 2-{1-[2-(6-Chloro-1,2,3,4-tetrahydroacridin-9-ylamino)ethyl]-1H-1,2,3-triazol-4-yl}-N-[4-(hydroxy)-3-methoxybenzyl]acetamide], the IC50 came to 290 ± 10 nM in series [3] (setting [6]); 10 nM in series [4] (setting [7]); 7.18 nM in series [4] (values given in nM (table footnotes, text), read-out: IC50 hAChE). In series [1] (pig), this compound came in with a Papp of 2.97 ± 0.61 ×10⁻⁶ cm/s. Also, in series [4], the “selectivity for hAChE over hBChE inhibition” value is 40. The “fold more potent hAChE inhibitor than pyridostigmine” value in series [4] was 192 fold. Also, the “PAMPA-BBB prediction of BBB permeation” value in series [2] is on record as “CNS±”.

As for `CCn1cc(C(=O)O)c(=O)c2cc(F)c(N3CCNCC3)cc21` [Norfloxazin, reference compound], the “Experimental Pe” value in series [2] (commercial drugs used for assay validation, mean ± SD of three independent experiments) is 0.9 ± 0.1 10^−6 cm s^−1.

Regarding `CN1C(C(=O)Nc2ccccn2)=C(O)c2ccccc2S1(=O)=O` [Piroxicam], the “Reported Pe” value in series [5] is on record as 2.5 10^−6 cm s^−1.

In the case of `CN(C)CCCN1c2ccccc2Sc2ccccc21` [Promazine], the “Reported Pe” value in series [5] is reported as 8.8 10^−6 cm s^−1.
